Results on two substances are retold here after patent publication US6849405B2, “Translation enhancer element of the human amyloid precursor protein gene” (The Brigham and Women's Hospital, Inc., priority 1997, dated 2005).

Several values for one entry are separate records, joined by “and”; a condition that tells them apart may be missing. Equal entries are not always repeated.

Experiment [1] concerns APP(s) secretion from primary human astrocytes. Briefly: Secretion of APP(s) (protease-nexin II) into medium from primary astrocytes. In kind it is cell-based. Particulars: 2 hour pulse labeling. The method, then: Secretion and labeling of APP(s) (protease-nexin-2) from primary astrocytes by IL-1 was measured in a separate set of experiments. Medium from 100 mm dishes (10 ml) of astrocyte cultures was collected after a 2-hour pulse labeling with 200 μCi/ml [^35S]-methionine. APP in 5 ml of precleared medium was immunoprecipitated using a 1:1500 dilution of rabbit polyclonal serum specific for amino acids 595-611 of APP (R1736, D. Selko). Apolipoprotein E was immunoprecipitated from 5 ml of culture supernatant using a 1:200 dilution of a polyclonal antiserum (Chemicon).
In all labeling experiments, immunoprecipitated protein was collected by the binding of antibody-labeled antigen complexes to Protein A Sepharose™ beads. Immunoprecipitated samples were applied to 10-20% tris-tricine gels (Novex) and the samples were electrophoresed in tris-tricine buffer according to the manufacturer's instructions. The gels were fixed with 25% methanol, […] for 1 hour, treated with fluorographic reagent (Amplify, Amersham) for 30 minutes, dried, and exposed to X-omat Kodak film overnight at −80° C.

Experiment [2] relates to ferritin-H subunit synthesis in astrocytoma (U373MG) cells. Briefly: Ferritin-H subunit synthesis, astrocytoma cells. In kind it is cell-based, human. Particulars: 0.5 ng/ml, 16 hrs. The method, then: (§1) Primary human astrocytes were prepared by trypsinization of human fetal brain tissue by a previously described method (Das, et al., Neuron 14; 447 (1995)). Cells were seeded onto poly-L-lysine (10 μg/ml) coated plates and were grown to 70% confluence in DMEM medium, (low glucose) supplemented with 10% fetal bovine serum. In order to eliminate microglia, the cultures were treated with 5 mM H-Leu-O-methylester (Guilian, J. Neurosci. Res. 18:155 (1987)). For immunofluorescence, cells were replated at a density of 100,000 cells per 60-mm petri dish on poly-L-lysine coated glass coverslips and grown for 24 hours in 0.5 ml of medium to allow the cells to attach. The presence of glial fibrillary acidic protein (GFAP) was detected by immunofluorescent staining of formaldehyde fixed cells using a 1:10 dilution of rabbit IgG1 antibody specific for human GFAP. Primary GFAP-specific antibody was added to the coverslips for 30 minutes at room temperature in phosphate buffered saline and 10% goat serum. The secondary antibodies used were goat anti-rabbit IgG conjugated to fluorescein isothiocyanate at a dilution of 1:100 (Boehringer). Fluorescence microscopy scored the cells used in the metabolic experiments as 95% pure astrocytes. […] The U373MG astrocytoma cell line was cultured on 100 mm uncoated dishes to 60-80% confluence in DMEM medium supplemented with 10% fetal bovine serum. […]

In experiment [3] the test system is L-ferritin synthesis in astrocytoma (U373MG) cells. Briefly: L-ferritin synthesis, astrocytoma cells. In kind it is cell-based, human. The following applies: 0.5 ng/ml, 16 hrs. As to the method:
as §1

Experiment [4] concerns APP mRNA 5′ UTR (pSV2(APP)CAT reporter). Briefly: CAT reporter activity in pSV2(APP)CAT-transfected astrocytoma cells. In kind it is cell-based, human. Particulars: for increase in CAT activity, maximal: pSV2(APP)CAT-transfected astrocytoma cells. The method, then:
The pSV2(APP)CAT construct contains the APP gene 5′ UTR in between the SmaI and the NruI sites (+52 nt and +142 nt from the 5′ cap site respectively). pSV2(APP)CAT was prepared by two steps of subcloning. (1) A 3 kb SmaI-HindIII fragment containing the APP gene, including the coding region and a segment of the 3′ UTR was subcloned into compatible StuI-HindIII sites unique to the 5′ UTR of the CAT gene in the pSV2CAT expression vector. (2) The APP gene fragment in between the NruI and HindIII sites was removed from the construct. The restriction sites were then blunt-ended and religated. In the pSV2(APP)CAT transfectants, 90 nt of the APP gene 5′ UTR were expressed as part of a chimeric […] 5′ leader in the 1.5 kb APP/CAT transcript. The pSV2CAT construct contains the 5′ end of the CAT gene inserted into the unique polylinker site in pBluescript. A 250 nt HindIII/EcoRI fragment from the CAT gene in pSV2CAT was subcloned into the pBS vector (Stratagene). The CAT gene fragment codes for 36 nt of the CAT gene 5′ UTR and 218 bp of the 5′ end of the coding sequence of the CAT gene.
Astrocytoma and neuroblastoma cells were transfected with pSV2CAT or pSV2(APP)CAT by lipofection. Briefly, lipofectamine reagent (Boehringer) was added to DMEM (without serum) and allowed to sit 30 minutes at room temperature. Plasmids (10 μg) in an equal volume of DMEM were then added, and, after sitting for 45 minutes at room temperature, the lipid/DNA solution was added to 60% confluent cells on 100×20 mm cell culture plates. After 4 hours, this solution was removed, and the cells were washed twice in DMEM (without serum). Fresh DMEM medium (containing 10% fetal calf serum) was added. At this time, treatments were administered which included: (1) 0.5 ng/ml IL-1α; (2) 0.5 ng/ml IL-1β; (3) 5 μM Fe2TF (holo-transferrin); and (4) unstimulated controls. […]
After harvesting, cells were resuspended in 100 μl 0.25 M Tris, pH 7.8, and subjected to three cycles of freezing (liquid nitrogen) and […] (37° C.) to lyse cells. […] Protein concentration was determined by a Biorad assay, and exactly 20 μg of lysate was added to a CAT reaction mix containing 50 μl 1M Tris, pH 7.8, 20 μl acetylcoenzyme-A (3.5 mg/ml) and […] ^14C-labeled chloramphenicol (25 mCi/ml). […] For quantitative analysis, the areas on the TLC plates which aligned with dots on the film were excised and the radioactivity was counted in 5 ml of scintillation cocktail (Econofluor) using a scintillation counter (Hewlett Packard). In some experiments, CAT activity was measured by counting the amount of CAT reaction product diffusing into liquid scintillation fluid as described previously (Rogers, et al., Nucl. Acid Res. 22:2678 (1994)). […]

interleukin-1β [IL-1β]: the “enhanced secretion of APP(s) into the medium” value in experiment [1] was found to be 1.8 fold. The “enhanced rate of ferritin-H subunit synthesis” value in experiment [2] worked out at 5 fold. Besides, the “enhanced rate of L-ferritin synthesis” value in experiment [3] is recorded as 2 fold. For the same substance, the “enhancement of CAT activity, parallel transfection” value in experiment [4] (pSV2(APP)CAT transfectants, parallel to the pSV2CAT transfection) is listed as 3 fold. Moreover, the “increase in CAT activity, maximal” value in experiment [4] is given as 4 fold.
As for interleukin-1α [IL-1α], in experiment [1] (medium), the “increased accumulation of APP(s)” value was determined as 50%. Further, the “enhanced rate of ferritin-H subunit synthesis” value in experiment [2] came to 5 fold. In addition, the “enhanced rate of L-ferritin synthesis” value in experiment [3] was found to be 2 fold. The “increase in CAT activity, average” value in experiment [4] (pSV2(APP)CAT transfectants, matching experiments, average) is given as 2.3 fold. The “increase in CAT activity, maximal” value in experiment [4] was 3 fold and 4 fold.
